Series [1] relates to professional sensory panel. The experiment in a line: aqueous solutions in 0.5% salt and 0.05% MSG tasted by a professional sensory panel. Type of series: in vivo. Here is the method:
Six aqueous solutions were prepared: A. 0.5% salt and 0.05% MSG The solutions were tasted by a professional sensory panel. Three aqueous solutions were prepared: A. 0.5% salt and 0.05% MSG The solutions were tasted by a professional sensory panel. Solution A was described as: “salty”. […] Three aqueous solutions were prepared: A. 0.5% salt and 0.05% MSG The solutions were tasted by a professional sensory panel. Solution A was described as: “salty” and “umami”.

The conditions of series [2]: cited from earlier work; for taste: as a dry powder and as an alcoholic or aqueous solution; for pungency: compared with capsaicin.
In series [3] the test system is sensory panel. The experiment in a line: sweetened 0% fat red fruit yoghurts tasted and evaluated by a sensory panel. In kind it is in vivo. Here is the method: Three yoghurts were prepared according to the recipe in table 2. [table] All products were tasted and evaluated by a sensory panel.
Series [4] concerns sensory panel. The experiment in a line: tomato soups (10 g powder in 100 ml hot water) tasted and evaluated by a sensory panel. Type of series: in vivo. Particulars: for perceived saltiness versus product A (control) / taste description: 50% reduced salt. Here is the method:
[table] 10 Gram of each composition was mixed with 100 ml hot water to obtain tomato soups. The different soups were tasted and evaluated by a sensory panel.

Setting [5] is: Yoghurt B: 0.003 microgram per 100 g yoghurt.
Where [6] appears, read: product C: 0.005 mg per 100 g tomato soup powder.
Setting [7] is: 0.1 ppt in 0.5% salt and 0.05% MSG (Example 4, solution C).
Setting [8] is: 1 ppb in 0.5% salt and 0.05% MSG (Example 3, solution E).
Where [9] appears, read: 10 ppt in 0.5% salt and 0.05% MSG (Example 4, solution D).
[10] abbreviates: 30 ppb in 0.5% salt and 0.05% MSG (Example 3, solution F).
The mark [11] stands for this setting: Yoghurt C: 0.15 microgram per 100 g yoghurt.
[12] abbreviates: product D: 0.3 mg per 100 g tomato soup powder.

The values below come from US8293215B2, “Flavour modulating derivative of a carboxylic acid and a purine, pyrimidine, nucleoside, or nucleotide” (Givaudan Nederland Services B.V., priority 2006, dated 2012).

For the molecule `Nc1nc2c(ncn2[C@@H]2O[C@H](COP(=O)(O)O)[C@@H](O)[C@H]2O)c(=O)[nH]1` [GMP, guanosine 5′-monophosphate, reference compound], the taste description entry in series [1] (1 ppm in 0.5% salt and 0.05% MSG (Example 3, solution B)) is reported as ““sweet”, “lingering umami””.
As to `COc1cc(CNC(N)=O)ccc1O` [Vanillylurea], in series [2], the taste result is “tasteless”.
Take `CC(=O)Nc1nc2c(ncn2[C@@H]2O[C@H](COP(=O)(O)O)[C@@H](O)[C@H]2O)c(=O)[nH]1` [acetyl-GMP, N-acetyl-GMP]: in the series on sensory panel [3] (setting [5]), the “preference versus product A (yoghurt without modulator)” value is recorded as “clearly preferred over product A”; the “strength compared with product C (0.15 microgram lactoyl-GMP per 100 g)” value is given as “comparable”; the taste description result was “sweet, fuller, more natural berry-like, fruity and more balanced flavour”. In the series on sensory panel [4] (setting [6]), the “preference versus product B (50% reduced salt)” value was “clearly preferred over product B”; the “perceived saltiness versus product A (control)” value is “comparable to that of product A”; the taste description entry was ““more taste”, “more impact”, “more kokumi”, “long lasting” and “salivating””. Besides, in series [1] (setting [7]), the “share of the panel that found this detectable” value was 40% and the taste description entry is recorded as ““sweet”, “umami””. In series [1] (setting [8]), the taste description result is given as ““salivating”, “salty”” and the “taste strength compared with solution D (0.6 ppb lactoyl-GMP)” value is reported as “stronger than D”. Moreover, the taste description result in series [1] (1 ppt in 0.5% salt and 0.05% MSG (Example 8, solution C)) was ““sweet”, “umami””. In addition, in series [1] (setting [9]), the “share of the panel that found this detectable” value worked out at 100%; the “strength of the taste compared with solution B (0.6 ppb lactoyl-GMP)” value is listed as “comparable”; the taste description result is reported as ““sweet”, “umami””. Besides, in series [1] (setting [10]), the taste description result was ““salivating”, “salty”” and the “taste strength compared with solution E (1 ppb acetyl-GMP)” value is reported as “stronger than E”.
Take `CC(O)C(=O)Nc1nc2c(ncn2[C@@H]2O[C@H](COP(=O)(O)O)[C@@H](O)[C@H]2O)c(=O)[nH]1` (stereo partly drawn) [lactoyl-GMP, reference compound]: in the series with sensory panel [3] (setting [11]), the “preference versus product A (yoghurt without modulator)” value was “clearly preferred over product A”; the taste description result is “sweet, fuller, more natural berry-like, fruity and more balanced flavour”. In the series on sensory panel [4] (setting [12]), the “preference versus product B (50% reduced salt)” value is reported as “clearly preferred over product B”; the “perceived saltiness versus product A (control)” value is on record as “comparable to that of product A”; the taste description entry was ““more taste”, “more impact”, “more kokumi”, “long lasting” and “salivating””. Besides, in series [1] (0.6 ppb in 0.5% salt and 0.05% MSG), the taste description entry was ““sweet”, “lingering umami”, “more salivating””. In addition, in series [1] (0.6 ppb in 0.5% salt and 0.05% MSG (Example 3, solution D)), the “taste strength compared with solution C (0.2 ppm process flavour containing 0.3% lactoyl-GMP)” value is “stronger than C”.
Regarding `COc1cc(CNC(N)=S)ccc1O` [vanillylthiourea], the taste entry in series [2] was “tasteless”.
Regarding o-tolylvanillylthiourea, the pungency entry in series [2] is “property of pungency but to a lesser degree than capsaicin”.
Turning to p-tolylvanillylthiourea, in series [2], the pungency result is recorded as “property of pungency but to a lesser degree than capsaicin”.
As for phenylvanillylthiourea, in series [2], the taste result is given as “tasteless” and the pungency entry was “property of pungency but to a lesser degree than capsaicin”.
